Laboratory results published in US6916834B2, “Preparations and use of an Ah receptor ligand, 2-(1′H-indole-3′-carbonyl)-thiazole-4-carboxylic acid methyl ester” (Wisconsin Alumni Research Foundation, priority 2001, dated 2005).
One block for each compound: values may come before it.

Experiments:
[1] = target: T1, Ah receptor (Mus musculus, UniProt P30561); experiment: AhR ligand activity assay (luciferase reporter gene, H1L1.1C2 ligand reporting cells); assay type: cell-based
T1 construct: endogenous in cells; host or cells: H1L1.1C2 AhR ligand reporting cells
T1 sequence (P30561 10-848): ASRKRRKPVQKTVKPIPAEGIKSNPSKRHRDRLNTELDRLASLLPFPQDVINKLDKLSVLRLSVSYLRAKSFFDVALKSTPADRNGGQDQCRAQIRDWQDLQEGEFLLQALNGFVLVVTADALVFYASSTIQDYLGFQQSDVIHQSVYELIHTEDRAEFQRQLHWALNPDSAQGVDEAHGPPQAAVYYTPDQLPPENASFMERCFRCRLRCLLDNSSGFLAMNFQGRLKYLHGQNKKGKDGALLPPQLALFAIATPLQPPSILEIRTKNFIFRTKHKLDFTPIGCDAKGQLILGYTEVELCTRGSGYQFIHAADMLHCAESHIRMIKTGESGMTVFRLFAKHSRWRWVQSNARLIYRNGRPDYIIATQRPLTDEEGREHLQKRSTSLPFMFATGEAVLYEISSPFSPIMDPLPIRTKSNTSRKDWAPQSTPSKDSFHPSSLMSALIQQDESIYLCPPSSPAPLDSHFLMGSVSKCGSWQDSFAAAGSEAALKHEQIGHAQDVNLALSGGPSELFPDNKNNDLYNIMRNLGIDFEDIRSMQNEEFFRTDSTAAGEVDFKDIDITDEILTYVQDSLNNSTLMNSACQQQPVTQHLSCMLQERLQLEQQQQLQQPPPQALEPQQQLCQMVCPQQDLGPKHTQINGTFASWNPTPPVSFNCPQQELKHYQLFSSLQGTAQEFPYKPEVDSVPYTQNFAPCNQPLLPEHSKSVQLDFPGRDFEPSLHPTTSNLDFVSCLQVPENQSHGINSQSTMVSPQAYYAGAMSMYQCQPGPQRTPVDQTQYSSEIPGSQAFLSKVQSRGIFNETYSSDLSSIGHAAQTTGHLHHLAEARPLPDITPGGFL
Experimental: The ligand activity is determined most preferably by an activity assay described below. In brief, the ligand extracts are added to Ah receptor-containing ligand reporter cells. These cells are then incubated for 4 hours and the cells are lysed to release the formed luciferase. This enzyme typically is measured according to the kit sold by Promega (Madison, Wis., USA.). Luciferase activity is measured by light emission recorded by a luminometer. The luminometer readings are taken after a substrate solution is injected into a well.
The cell line H1L1.1C2 was maintained in a culture medium (DMEM+10% FBS) with G418 at a concentration of 400 μg/ml and incubated under an atmosphere of 37° C., 6% CO2, and 100% humidity. A 96 well sterile cell culture plate with about 30,000 cells per well in 200 μl of the culture medium without G418 was prepared and incubated for at least 12 hours before being dosed for ligand activity assay.
The solvents from the ligand activities were evaporated and the activities were reconstituted in DMSO and 1 μl of this solution was used to dose the ligand reporting cells in a well with 200 μl of culture medium. One row of the reporting cells in each assay plate was dosed with 1 μl of the DMSO solutions of a set of βNF standards to generate a standard dose response curve. The dosed cells were incubated for 6 hours under the same environment as they were maintained. The cells were washed twice with a 1×PBS (pH 6.9) after the incubation and the culture wells were scanned under an inverted microscope to detect any obvious cell number change due to dosing. The cells were lysed by adding 50 μl of a 1×cell lysis reagent (Promega, Madison, Wis., USA) and 10 μl of the lysate from each well were transferred into a corresponding well of a Microlite 2 plate (Dynex Technologies Inc., Chantilly, Va., USA) for luminometer reading. A MLX Microtiter Plate Luminometer (Dynex Technologies Inc.) was programmed to inject 50 μl of a luciferase substrate solution (Promega) into a well, read the light intensities in Relative Light Units (RLU's) generated by the luciferase reaction for 5 seconds after a one second delay following the injection, and take the average of the 5 second readings as a final RLU.
Dose response curves of RLU's vs. doses of βNF standards (ng in each assay well) from each plate were plotted and the RLU's generated by the samples were converted into βNF equivalent (BEQ) as ligand activity by consulting the βNF dose response curve generated from the same plate. Data were reported as ligand activity (in BEQ) vs. treatments or fractions from a purification procedure.

[2] = Solubility and stability characterisation of the ligand preparation; assay type: physicochemical
Experimental: The preferred ligand preparation described below can be characterized by its solubility. The ligand is extractable from tissue by 80% methanol/20% water. After the boiling and acid treatment, the ligand is extractable in chloroform.
The ligand preparation is unstable in base but stable in up to two normal acid for at least 24 hours. The preparation is stable to heating at 37° C. overnight (16 hours) and at 100° C. for 24 hours.

[3] = target: T1, Ah receptor; experiment: Reduction with NaBH4, phases assayed for biological activity; assay type: cell-based; settings: saturated NaBH4 in ethanol, overnight, room temperature; data not shown
Experimental: Specified quantity of the compound was pipetted into a glass via for reaction and the solvents were evaporated. A saturated solution (100 μl) of NaBH4 in ethanol (200 proof, Aaper Alcohol and Chemical Co. Shelbyville, Ky., U.S.A.) was added to each reaction tube. The mixture was incubated overnight at room temperature and stopped by adding 200 μl of water. The reactions were extracted with 200 μl of chloroform twice and the chloroform phases were pooled. The solvents from both aqueous and chloroform phases were evaporated and both phases were assayed for biological activities. The chloroform phase was analyzed with electron impact mass spectroscopy as was a blank treated identically but containing no isolate.

[4] = target: T1, Ah receptor; experiment: Base hydrolysis and methylation, products assayed for biological activity; assay type: cell-based; settings: same manipulations as for the ligand
Experimental: To 2 μl of methanol with 3 ng BEQ of the sample, 38 μl of methanol of 10 μl of a 0.5 mm KOH in water were added and mixed. The reaction was incubated at 37° C. for 2 hours and stopped by adding 10 μl of 0.5 mmolar HCl in water to bring pH to around 5.0. To the reaction mix, 30 μl of water, 10 μl of methanol, and 50 μl of chloroform were added and mixed. The chloroform phase was separated and kept after centrifugation of the mixture. The chloroform extraction was repeated and the two chloroform phases were pooled. The chloroform phase was split into two parts, one for biological assay and the other for methylation. The same manipulations were performed for 3 ng of βNF in 2 μl of methanol and 2 μl of methanol as controls.
The solvents were evaporated and the products were assayed side by side with the hydrolysis products without methylation.

[5] = target: T1, Ah receptor; experiment: Base treatment followed by ligand activity assay; assay type: cell-based; settings: 0.1 N KOH, 37° C., overnight
Experimental: An aliquot of methanolic extracts of about 4 ng BEQ was transferred into a cleaned glass vial and the solvents were evaporated. A solution (200 ul) of 0.1 N KOH in water was added into the vial. The vials were incubated at 37° C. overnight. After the incubation, the tubes were cooled down and neutralized slowly with HCl. The treatment mixtures were extracted with 200 μl of chloroform. Chloroform and aqueous phases were separated and the solvents were evaporated. DMSO (10 μl) was added to each tube for activity assay. βNF and blank extracts were treated the same way as for the sample.

[6] = target: T1, Ah receptor; experiment: Heat treatment followed by ligand activity assay; assay type: cell-based; settings: 100° C. water bath, 30 minutes
Experimental: The methanolic extracts either in methanol or DMSO in a cleaned glass vials were heated in a 100° C. water bath for 30 minutes and the vials were cooled to room temperature. The extracts in the solvents were directly assayed as they were to determine the activities.

SMILES: COc1cc(-c2cc(=O)c3ccccc3o2)ccc1[N+](=O)[O-] [3′-methoxy-4′-nitroflavone]
antagonism of the reporter gene response to ITE ([1]; AhR antagonist, data not shown): block the reporter gene response to the compound in a dose dependent fashion

biological activity of synthetic compound compared with the isolate [1]: the same biological activity
reporter gene potency relative to βNF ([1]; dose response curves after 4 hours of incubation, FIG. 7B): about five
extractability from tissue by 80% methanol/20% water [2]: extractable
stability in base [2]: unstable
time stable in up to two normal acid [2]: at least 24 hours
stability to heating at 100° C. ([2]; 24 hours): stable
extractability in chloroform ([2]; after the boiling and acid treatment): extractable
stability to heating at 37° C. ([2]; overnight (16 hours)): stable
SMILES: COC(=O)c1csc(C(=O)c2c[nH]c3ccccc23)n1 [ITE, 2-(1′-H-indole-3′-carbonyl)-thiazole-4-carboxylic acid methyl ester]
biological activity after reduction with NaBH4 [3]: completely destroyed the biological activity

induction over vehicle control ([1]; 0.05 ng of βNF per assay well (200 μl medium), 96 well format): two to three
amount generating a distinguishable signal ([1]; per assay well, 96 well format): 0.01 ng
change in biological activity after hydrolysis and methylation manipulations [4]: no change
response of ligand activity to base treatment [5]: did not respond
response of ligand activity to heat treatment [6]: did not respond
SMILES: O=c1cc(-c2ccccc2)oc2ccc3ccccc3c12 [βNF, β-Naphthoflavone]
